Test results reported in patent US10407445B2, “Hepatitis C virus inhibitors” (ENANTA PHARMACEUTICALS, INC., priority 2013, dated 2019).

How the values were obtained:
Type in all cases: cell-based
[1] = tested on: GT1a replicon encoding NS5A mutation Y93C; assay: Transient replication assay, GT1a replicon with NS5A mutation Y93C; conditions: Hepatitis C virus, read-out: EC50 1a Y93C
[2] = tested on: GT1a replicon encoding NS5A mutation M28T; assay: Transient replication assay, GT1a replicon with NS5A mutation M28T; conditions: Hepatitis C virus, read-out: EC50 1a M28T
[3] = tested on: GT1a replicon encoding NS5A mutation L31V; assay: Transient replication assay, GT1a replicon with NS5A mutation L31V; conditions: Hepatitis C virus, read-out: EC50 1a L31V
[4] = tested on: GT1a replicon encoding NS5A mutation Y93H; assay: Transient replication assay, GT1a replicon with NS5A mutation Y93H; conditions: Hepatitis C virus, read-out: EC50 1a Y93H
HCV GT 2a-J6 replicon = assay: HCV replicon assay, GT2a chimeric replicon expressing NS5A from GT2a strain J6; conditions: Hepatitis C virus, 72 h, read-out: EC50 2a J6
How it was run: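 Stable Huh-7.5 lines carried JFH-1 subgenomic replicons with hRluc-Neo reporter, in which NS5A was swapped for GT3a strain S52 or GT2a strain J6 NS5A. Renilla luciferase was read after 72 h relative to DMSO controls.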

| Structure (SMILES) | EC50 [1] | EC50 [2] | EC50 [3] | EC50 [4] | EC50 (HCV GT 2a-J6 replicon) |
| --- | --- | --- | --- | --- | --- |
| COC(=O)N[C@H](C(=O)N1C[C@]2(CCCOC2)C[C@H]1c1ncc(-c2ccc(-c3ccc4c(ccc5nc([C@@H]6C[C@H]7C[C@H]7N6C(=O)[C@@H](NC(=O)OC)C(C)C)[nH]c54)c3)cc2)[nH]1)C(C)C [Compound 18] | 0.2 nM | 0.2 nM | 0.3 nM | 6 nM | 2 nM |
| COC(=O)N[C@H](C(=O)N1C[C@]2(CCCO2)C[C@H]1c1ncc(-c2ccc(-c3ccc4c(ccc5nc([C@@H]6CCCN6C(=O)[C@@H](NC(=O)OC)C(C)C)[nH]c54)c3)cc2)[nH]1)C(C)C [Example 81] | 0.2 nM | 0.3 nM | 0.4 nM | 15 nM | 45 nM |
| COC(=O)N[C@H](C(=O)N1CCC[C@H]1c1nc2ccc3cc(-c4ccc5c(ccc6nc([C@@H]7CCCN7C(=O)[C@@H](NC(=O)OC)C(C)C)[nH]c65)c4)ccc3c2[nH]1)C(C)C [Example 101] | 0.5 nM | 1 nM | 6 nM | 25 nM | 0.1 nM |
| COC(=O)N[C@H](C(=O)N1C[C@@]2(CCCO2)C[C@H]1c1ncc(-c2ccc(-c3ccc4c(ccc5nc([C@@H]6CCCN6C(=O)[C@@H](NC(=O)OC)C(C)C)[nH]c54)c3)cc2)[nH]1)C(C)C [Example 82] | 0.2 nM | 14 nM | 46 nM | 5 nM | 40 nM |
| COC(=O)N[C@H](C(=O)N1C[C@]2(CCCOC2)C[C@H]1c1nc2ccc3cc(-c4ccc(-c5cnc([C@@H]6C[C@@H]7C[C@@H]7N6C(=O)[C@@H](NC(=O)OC)C(C)C)[nH]5)cc4)ccc3c2[nH]1)C(C)C [Compound 22] | 0.3 nM | 0.1 nM | 0.9 nM | 6 nM | 6 nM |
| COC(=O)N[C@H](C(=O)N1CCC[C@H]1c1nc2ccc3cc(-c4ccc5c(ccc6nc([C@@H]7C[C@@]8(CCCOC8)CN7C(=O)[C@@H](NC(=O)OC)C(C)C)[nH]c65)c4)ccc3c2[nH]1)C(C)C [Compound 48] | 0.02 nM | 0.05 nM | 0.5 nM | 2 nM | 0.03 nM |
| COC(=O)N[C@H](C(=O)N1C[C@@]2(CCCCO2)C[C@H]1c1nc(-c2ccc(-c3ccc4c(ccc5nc([C@@H]6CCCN6C(=O)[C@@H](NC(=O)OC)C(C)C)[nH]c54)c3)cc2)c[nH]1)C(C)C [Example 3] | 0.7 nM | 6 nM | 44 nM | 6 nM | 267 nM |
| COC(=O)N[C@H](C(=O)N1C[C@]2(CCCOC2)C[C@H]1c1ncc(-c2ccc(-c3ccc4c(ccc5nc([C@@H]6C[C@@]7(CCCOC7)CN6C(=O)[C@@H](NC(=O)OC)C(C)C)[nH]c54)c3)cc2)[nH]1)C(C)C [Compound 11] | 0.07 nM | 0.02 nM | 0.08 nM | 2 nM | 2 nM |
| COC(=O)N[C@H](C(=O)N1C[C@]2(CCCOC2)C[C@H]1c1ncc(-c2ccc(-c3ccc4c(c3)CCCc3nc([C@@H]5C[C@@H]6CCCC[C@@H]6N5C(=O)[C@@H](NC(=O)OC)C(C)C)[nH]c3-4)cc2)[nH]1)C(C)C [Compound 40] | 0.7 nM | 0.6 nM | 1 nM | 8 nM | 55 nM |
| COC(=O)N[C@H](C(=O)N1CC2(CCOCC2)C[C@H]1c1ncc(-c2ccc(-c3ccc4c(ccc5nc([C@@H]6CCCN6C(=O)[C@@H](NC(=O)OC)C(C)C)[nH]c54)c3)cc2)[nH]1)C(C)C [Example 83] | 1 nM | 0.9 nM | 6 nM | 26 nM | 32 nM |
| COC(=O)N[C@H](C(=O)N1C[C@]2(CCCOC2)C[C@H]1c1nc2ccc3cc(-c4ccc(-c5cnc([C@@H]6C[C@@H]7CCC[C@@H]7N6C(=O)[C@@H](NC(=O)OC)C(C)C)[nH]5)cc4)ccc3c2[nH]1)C(C)C [Compound 10] | 0.2 nM | 0.04 nM | 0.05 nM | 4 nM | 0.2 nM |
| COC(=O)N[C@H](C(=O)N1C[C@]2(CCCOC2)C[C@H]1c1ncc(-c2ccc(-c3ccc4c(ccc5nc([C@@H]6C[C@@H]7C[C@@H]7N6C(=O)[C@@H](NC(=O)OC)C(C)C)[nH]c54)c3)cc2)[nH]1)C(C)C [Compound 20] | 1 nM | 0.9 nM | 7 nM | 18 nM | 23 nM |
